In patent publication US20220002333A1, “CRYSTALLINE FORM A OF 2'-FLUORO-4'-SUBSTITUTED NUCLEOSIDE ANALOGUE I AND PREPARATION METHOD AND APPLICATION THEREOF” (Henan Genuine Biotech Co., Ltd., priority 2019, published 2022):
Like-named read-outs stand apart in the source and are kept apart here.

Columns and labels:
[1] = test system: B-cell non-Hodgkin's lymphoma; assay: Anticancer activity on B-cell non-Hodgkin's lymphoma
Experimental: The anticancer (non-Hodgkin's lymphoma) activity of the crystalline form A of the compound I was determined according to the literature method (Asian Pacific Journal of cancer prevention 2014, 15, 6829).
(§1) The anticancer activity of the crystalline form A of the compound I on B-cell non-Hodgkin lymphoma, lung cancer, gastric cancer, colorectal cancer and leukemia was determined according to the literature method (Wang, Q. et al Biochemical Pharmacology 2011, 81, 848; Asian Pacific Journal of Cancer Prevention 2014, 15, 6829).

lung cancer = assay: Anticancer activity on lung cancer
Experimental: as §1

leukemia = assay: Anticancer activity on leukemia
Experimental: as §1

[2] = Stability evaluation of crystalline forms under high temperature, high humidity and light (XRPD); type: physicochemical; conditions: for Stability of crystalline form under high humidity: 40° C. and 75% humidity for five and ten days; for Stability of crystalline form under high temperature: 60° C. for five days and ten days; for Stability in stability evaluation (overall): high temperature, high humidity and light
Experimental: The crystalline forms of the compound were systematically screened by means of unitary method, binary method, cooling, dissolution (positive and negative), diffusion and so on, and two crystalline forms were found: crystalline form A and amorphous crystalline form B. The stabilities of the crystalline form A and the crystalline form B under high temperature, high humidity and light were evaluated respectively. […] These experimental conditions were as follows: the high temperature condition is 60° C. for five days and ten days; the high humidity condition is 40° C. and 75% humidity for five and ten days; the light conditions were 4500 lux for five and ten days.

[3] = Static electricity and mixing uniformity with excipients / content of compound I in tablets; type: physicochemical; conditions: for Drug content for each tablet: 10 tablets arbitrarily selected, average 1 mg compound I and 149 mg excipients per 150 mg tablet; for Static: solid compound I
Experimental: After 10 days of storage at 40° C./75% humidity, 80-90% of the solid compound I with amorphous form B is gradually transformed into stable crystalline form A. The compound of crystalline form A is a loose solid. Because the dosage of the compound I for adults with AIDS is only 1-3 mg per day, which is a low amount, the uniform mixing of the compound with an excipient is crucial to ensure the anti HIV effect of the drug.

T-cell lymphoma = assay: Anti-T-cell lymphoma activity in patient-derived tumor xenografts (PDX) mouse model; type: in vivo
Experimental: The inhibitory effect of the crystalline form A of the compound I on T-cell lymphoma was determined by patient-derived tumor xenograft (PDX).
After the patient's T-cell lymphoid carcinoma tissue was sampled, the tissue was transferred to a specific pathogen free (SPF) animal room through a transfer window. In a super clean table, phosphate buffered saline (PBS) buffer with double antibodies, Dulbecco's modified eagle medium (DMEM) medium, Petri dish and ice bag were prepared. An appropriate amount of PBS and DMEM were poured to the Petri dishes on ice. The tissue was taken out and put into PBS for preliminary cleaning, and necrotic and normal tissue was removed. The tissue in PBS was transferred to DMEM. The remaining tissue was cut into small pieces of 20-30 mm^3 patches, which were transplanted into the armpit and back of mice with puncture needles. Each mouse was inoculated with the tissue on one site. The tumors of the inoculated mice were taken out regularly, photographed, and the volume changes thereof were compared (see FIG. 9).

[4] = listed as sheet amorphous solid B

SMILES | Inhibitory effect on B-cell non-Hodgkin's lymphoma [1] | Inhibitory effect on lung cancer (lung cancer) | Inhibitory effect on leukemia (leukemia) | Stability of crystalline form under high humidity [2] | Stability of crystalline form under high temperature [2] | Stability in stability evaluation (overall) [2] | Mixing with excipients [3] | Drug content for each tablet [3] [mg] | Static [3] | Static ([3]; listed as Crystalline form) | Inhibition of growth of T-cell lymphoma (T-cell lymphoma; dose 2 mg/kg) | Inhibition of growth of T-cell lymphoma (T-cell lymphoma; dose 4 mg/kg) | Inhibition of growth of T-cell lymphoma (T-cell lymphoma; dose 8 mg/kg) | Portion of solid transformed into stable crystalline form A ([2]; after 10 days of storage at 40° C./75% humidity) | Drug content for each tablet ([3]; listed as Amorphous B) [mg] | Mixing with excipients [3, 4] | Static ([3]; listed as Amorphous B) | Static [3, 4]
[N-]=[N+]=N[C@]1(CO)O[C@@H](n2ccc(N)nc2=O)[C@@H](F)[C@@H]1O [compound I, 2′-fluoro-4′-substituted nucleoside analogue I] | significant inhibitory effects | significant inhibitory effects | significant inhibitory effects |  |  |  |  |  |  |  |  |  |  |  |  |  |  | 
[N-]=[N+]=N[C@]1(CO)O[C@@H](n2ccc(N)nc2=O)[C@@H](F)[C@@H]1O [crystalline form A, 2′-fluoro-4′-substituted nucleoside analogue I] |  |  |  | stable | stable | good stability | easy to mix evenly with excipients | 0.95 to 1.05 | no static electricity | No | significantly inhibit | significantly inhibit | significantly inhibit |  |  |  |  | 
[N-]=[N+]=N[C@]1(CO)O[C@@H](n2ccc(N)nc2=O)[C@@H](F)[C@@H]1O [crystalline form B, 2′-fluoro-4′-substituted nucleoside analogue I] |  |  |  | gradually transformed into crystalline form A | gradually transformed into crystalline form A | generally stable |  |  |  |  |  |  |  | 80-90% | 0.5 to 1.5 | not easy to mix evenly with excipients | Yes | obvious static electricity
